Assay results: patent US11542470B2, “Methods of differentiating stem cell-derived proprioceptors” (MEMORIAL SLOAN-KETTERING CANCER CENTER, priority 2016, dated 2023)

What was measured:
rodent GSK3β homologs = details: cited from earlier work
human stem cells = assay: Differentiation of human stem cells into sensory neuron subtypes in E8/E6 medium (TrkA, TrkB, TrkC); format: cell-based; details: CHIR99021 3 μM, 1.5 μM and 0.75 μM from day 2 through day 12, FIG. 3B
Description: An E8/E6 medium was used to differentiate human stem cells into sensory neurons, including nociceptors, proprioceptors, and mechanoceptors. […] On day 4, day 8, day 12, and day 16, the cells were measured for CD49d expression. […] On day 16 and day 20, cells were stained for BRN3A, TUJ1, and DAPI. […] TrkA is a nociceptor marker, TrkB is a mechanoreceptor marker, and TrkC is a proprioceptor marker.

Cc1c[nH]c(-c2cnc(NCCNc3ccc(C#N)cn3)nc2-c2ccc(Cl)cc2Cl)n1 [CHIR99021, 6-(2-(4-(2,4-dichlorophenyl)-5-(4-methyl-1H-imidazol-2-yl)pyrimidin-2-ylamino)ethylamino)nicotinonitrile]
IC50 values against rodent GSK3β homologs (rodent GSK3β homologs): nanomolar | generation of the three sensory neuron subtypes (nociceptors, proprioceptors, mechanoreceptors) (human stem cells): generated at similar efficiencies
